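These data come from cells grown in 96-well plates and exposed to compound for 48 hours at five concentrations. TGI denotes the concentration required for complete inhibition of growth.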
Assays:
Assay in all cases: NCI-60 cell line screen, 48 h
[1] = tested on: ACHN renal
[2] = tested on: HCT-15 colon
[3] = tested on: HOP-92 NSCLC
[4] = tested on: IGROV1 ovarian
[5] = tested on: MALME-3M melanoma
[6] = tested on: PC-3 prostate
[7] = tested on: SN12C renal
[8] = tested on: UACC-257 melanoma
[9] = tested on: UACC-62 melanoma
[10] = tested on: OVCAR-4 ovarian

| Compound | TGI [1] | TGI [2] | TGI [3] | TGI [4] | TGI [5] | TGI [6] | TGI [7] | TGI [8] | TGI [9] | TGI [10] |
| --- | --- | --- | --- | --- | --- | --- | --- | --- | --- | --- |
| NC(=O)c1nnsc1NC=O | > 100 µM | > 100 µM | > 100 µM | > 100 µM | > 100 µM | > 100 µM | > 100 µM | > 100 µM | > 100 µM |  |
| CC(C)C(=O)/C=C/c1ccc(Cl)c(Cl)c1 | 32.7 µM |  | 34.7 µM | 40.4 µM |  |  | 29.2 µM | 45.1 µM | 34.9 µM | > 100 µM |
| CC[C@@]12C=CC(=S)N(CCSc3ccccc3)[C@@H]1c1c(n(S(=O)(=O)c3ccc(OC)cc3)c3ccccc13)CC2 |  | > 100 µM | > 100 µM |  | > 100 µM | > 100 µM | > 100 µM | > 100 µM | > 100 µM |  |
| CCN(CC)C(=O)N1CN(c2ccccc2)C2(CCN(CCCSc3ccc(F)cc3)CC2)C1=O | 15.8 µM | 26.4 µM |  |  | 29.6 µM | 36.5 µM | 39.8 µM | 12.8 µM |  | > 100 µM |
| O=[N+]([O-])c1ccc(Cl)cc1N/N=C/c1cccc2cccnc12 | > 100 µM | > 100 µM |  | > 100 µM |  | > 100 µM | > 100 µM | > 100 µM | > 100 µM | > 100 µM |
| COc1cc2c(cc1OCCCC(=O)Nc1cc(C(=O)NCCCN(C)C)n(C)n1)N=CC1CCCN1C2=O (centres undefined) | 12.6 µM | > 21.5 µM | 13.2 µM | > 23.5 µM | 14.2 µM | 50.4 µM | > 24.6 µM | 19.2 µM |  | 14.1 µM |
| C(=C\c1cc(-c2ccc3ccccc3n2)nc2ccc3ccccc3c12)/c1ccc2ccccc2n1 | > 100 µM | > 100 µM |  | > 100 µM | > 100 µM | > 100 µM | > 100 µM | > 100 µM | > 100 µM | > 100 µM |
| CCOC(=O)CSc1[nH]c(NC(=S)Nc2ccccc2)c(C(N)=O)c1C(N)=O |  | > 10 µM | > 10 µM | > 10 µM | > 10 µM | > 10 µM | > 10 µM | > 10 µM | > 10 µM | > 10 µM |
| Cn1c(=O)c2c(nc(Nc3ccc(Cl)cc3)n3c(=O)n(-c4ccccc4)c(=O)n23)n(C)c1=O | > 100 µM | > 100 µM | > 100 µM | > 100 µM |  | > 100 µM | > 100 µM | > 100 µM | > 100 µM | > 100 µM |
| CCOP(=O)(OCC)C1=NC=CC=CC1n1c(-c2ccccc2)nn(CC)c1=O (centres undefined) | > 100 µM | > 100 µM | > 100 µM | > 100 µM | > 100 µM |  | > 100 µM | > 100 µM | > 100 µM |  |
| c1ccc(N=C2SC3=NCCN3C2=Nc2ccccc2)cc1 |  | 61.4 µM | 60.6 µM |  |  | 60.6 µM | 70 µM |  | 22.7 µM |  |
| S=C(Nc1ccccn1)Nc1ccccc1Cl | > 100 µM | > 100 µM |  | > 67 µM | > 79.5 µM | > 100 µM | > 100 µM | > 100 µM | > 100 µM | > 100 µM |
| C=CCN(c1cc(OC)c2[nH]cc(C)c2c1[N+](=O)[O-])S(C)(=O)=O | > 100 µM | > 100 µM |  | > 100 µM | > 100 µM | > 100 µM | > 100 µM | > 100 µM | > 100 µM | > 100 µM |
| COC(=O)c1ccccc1C1CN=NC12Cc1cccc(C)c1C2=O (centres undefined) | > 100 µM | > 100 µM | > 100 µM | > 100 µM | > 100 µM |  | > 100 µM | > 100 µM | > 100 µM | > 100 µM |
| CC(=O)/C=C(\O)c1[nH]c(C(=O)O)cc1C1CCN(Cc2ccccc2)C1=O (centres undefined) | > 100 µM | 38.4 µM | 58.8 µM | 61.5 µM | 46.3 µM | > 100 µM |  | 53.7 µM | 41.7 µM | > 100 µM |
| CC(C)C1CC[C@H](C)C[C@@H]1OC(=O)C(C(=O)O[C@H]1C[C@@H](C)CCC1C(C)C)C(O)[C@@H]1OC(C)(C)O[C@H]1C1COC(C)(C)O1 (some centres undefined) | 32 µM | 44.3 µM |  | 30.4 µM | 36 µM |  | 30 µM | 78.2 µM | 40.5 µM | 50.9 µM |
| COc1ccccc1NC(=O)O/N=C(/Cl)C(C)C | 17.4 µM | 27 µM |  | 32.7 µM | 7.37 µM | 33.2 µM | 31.7 µM | 26.8 µM | 37.4 µM |  |
| O=C1C(NCCN2CCOCC2)=C(Cl)C(=O)c2ncccc21 | 2.31 µM | 1.52 µM | 5.76 µM | 2.3 µM | 1.9 µM | 1.95 µM | 2.74 µM |  | 2.17 µM |  |
| CC1(C)CC2(C)CC1CC2NC(=O)CCN1CCOCC1 (centres undefined) | > 100 µM |  | > 100 µM | > 100 µM | > 100 µM | > 100 µM | > 100 µM | > 100 µM | > 100 µM | > 100 µM |
| COc1cc(C2c3cc4c(cc3[C@@H](Nc3cccc([N+](=O)[O-])c3)C3COC(=O)[C@H]23)OCO4)cc(OC)c1O (some centres undefined) |  | 4.12 µM | 27.7 µM | > 84.4 µM | 20.1 µM |  | > 22.2 µM | 35.2 µM | 15.7 µM | > 100 µM |
| NC1CC(=O)c2sccc21 (centres undefined) | > 100 µM | > 100 µM | > 100 µM | > 100 µM |  | > 100 µM | > 100 µM | > 100 µM | > 100 µM | > 100 µM |
| CCN(CC)CCCC(C)NC(=O)c1ccc2c(c1)C(=O)c1ccccc1C2=O (centres undefined) | 38.2 µM | 40 µM | 63.7 µM | 55.3 µM | 27.6 µM |  | 37.6 µM | 26.1 µM | 39.3 µM | 30.4 µM |
| O=C1CCCC2=C1CC1=C(CCCC1=O)N2c1ccccc1 | > 100 µM | > 100 µM | > 100 µM | > 100 µM |  | > 100 µM | > 100 µM |  | > 100 µM | > 100 µM |
| CC(C)(C)c1ccc(C(C)(C)C)c(N2C(=O)C3ON=C(c4ccc([N+](=O)[O-])cc4)C3C2=O)c1 (centres undefined) | > 25 µM | > 25 µM | > 25 µM | 19.4 µM | > 25 µM |  | > 25 µM | > 25 µM | > 25 µM | > 25 µM |

From PubChem BioAssay (NCI)
